The structures appear in SMILES notation. Values after ≈ are worked out from the molar mass of the structure shown. Where a SMILES comes first, the peptide text is derived from it. [ ]: non-standard residue; d: D form. The star is where a group is joined. X1 = CN1/C(=C/C=C(/C=C/C2=[N+](C)c3ccccc3C2(C)C)c2ccc(C(=O)*)cn2)C(C)(C)c2ccccc21; X2 = O=C1OC2(c3ccc(O)cc3Oc3cc(O)ccc32)c2cccc(C(=O)*)c21

For one assay, the system named is Fusarium oxysporum. Format: cell-based. The following applies: 24 h. As to the method: Dose dependent inhibition of fungal growth by all non-labelled peptides (indicated by IC50 values) was determined via this methodology. The assays were performed using Nunc 262162 U96 polystyrene round bottomed clear plates (www.nuncbrand.com).
(§1) When testing the peptides against A. fumigatus, peptides at different concentrations were mixed with A. fumigatus conidia to reach a final volume of 100 μL per well. The final conidial concentration was 5×10^5 cells/mL in 10% Vogel's medium. After 24 h of incubation at 37° C. in 96 well plates, fungal growth with the different peptide concentrations was determined by measurement of the optical density at 610 nm in a TriStar LB 941 Multimode Microplate Reader. The IC50 values were determined using four parameter logistic regression formula provided by Sigma Plot 10.0. Values are represented as means±SEM from two independent experiments (n=3).
When testing the peptides against N. crassa and F. oxysporum, experiments were carried as described above apart from the incubation temperature was changed to 25° C. for N. crassa and 35° C. for F. oxysporum.
(§2) The IC50 of the fluorescently labelled peptides cannot be accurately determined using the optical density method described in the last section. This is because the fluorophore structures absorbed light at 610 nm which was the wavelength used for the optical density measurements. In order to overcome this, the BacTiter-Glo™ Microbial Cell Viability Assay kit purchased from Promega was used. The BacTiter-Glo™ Reagent relies on the properties of a proprietary thermostable luciferase (Ultra-Glo™ Recombinant Luciferase) and a proprietary formulation for extracting ATP from fungal cells which will generates a ‘glow-type’ luminescent signal. This is produced by the luciferase reaction shown in Scheme 1, which has a signal half-life of over 30 min depending on the experimental conditions. The luminescent signal is proportional to the amount of ATP present, which is directly proportional to the number of living cells in culture.
(§3) The IC50 assays for all fluorescently labelled peptides were performed using Greiner CELLSTAR white polystyrene wells flat bottomed 96 well plates. The incubation conditions remained the same for the optical density measurement described in the previous section. Once the incubation procedure was finished, the plate was equilibrated to room temperature. A mixture of BacTiter-Glo™ buffer and substrate was then added to the plate (100 μL per well). The plate was shaken for 5 min and read using the Tristar […] luminometer. Data analysis was performed using Sigma Plot 10.0. All values shown are presented as means±SEM from two independent experiments (n=3).

In the next assay the test system is Aspergillus fumigatus. Format: cell-based. The following applies: 24 h. The protocol:
The assays were performed using Nunc 262162 U96 polystyrene round bottomed clear plates (www.nuncbrand.com).
as §1, §2, §3

On to `C[C@@H](NC(=O)[C@H](CCCCN)NC(=O)[C@H](CCCCN)NC(=O)[C@@H](N)CCCNC(=N)N)C(=O)N[C@@H](Cc1c[nH]c2ccccc12)C(=O)N[C@@H](Cc1ccccc1)C(=O)N[C@@H](Cc1c[nH]c2ccccc12)C(=O)NCC(=O)O` [MFIGAF000, NH2-Arg-Lys-Lys-ala-Trp-Phe-Trp-Gly-COOH] (HELM PEPTIDE1{R.K.K.[dA].W.F.W.G}$$$$V2.0), for which the “IC50 Fusarium oxysporum” value in the assay on Fusarium oxysporum worked out at 4.2 mg/L (≈ 3.9 µM). Further, in the assay on Aspergillus fumigatus, the “IC50 Aspergillus fumigatus” value turned out to be 5.3 mg/L (≈ 4.92 µM).

Turning to `CN1/C(=C/C=C(/C=C/C2=[N+](C)c3ccccc3C2(C)C)c2ccc(C(=O)NCCCC[C@@H]3NC(=O)[C@H](Cc4c[nH]c5ccccc45)NC(=O)[C@H](Cc4ccccc4)NC(=O)[C@H](Cc4c[nH]c5ccccc45)NC(=O)[C@@H](Cc4ccccc4)NC(=O)[C@H](CCCCN)NC(=O)[C@H](CCCCN)NC(=O)[C@H](CCCNC(=N)N)NC3=O)cn2)C(C)(C)c2ccccc21` [MFIGAF001c, Cyclo(Arg-Lys-Lys-phe-Trp-Phe-Trp-Lys(Cy5))] (cyclo(FWK(X1)RKK[dF]W)), the “IC50 Fusarium oxysporum” value in the assay with Fusarium oxysporum is recorded as 1.8 mg/L. In the assay on Aspergillus fumigatus, the “IC50 Aspergillus fumigatus” value worked out at 1.5 mg/L.

As for `N=C(N)NCCC[C@@H]1NC(=O)[C@H](CCCCNC(=O)c2cccc3c2C(=O)OC32c3ccc(O)cc3Oc3cc(O)ccc32)NC(=O)[C@H](Cc2c[nH]c3ccccc23)NC(=O)[C@H](Cc2ccccc2)NC(=O)[C@H](Cc2c[nH]c3ccccc23)NC(=O)[C@@H](Cc2ccccc2)NC(=O)[C@H](CCCCN)NC(=O)[C@H](CCCCN)NC1=O` [MFIGAF001d, Cyclo(Arg-Lys-Lys-phe-Trp-Phe-Trp-Lys(CF))] (cyclo(FWK(X2)RKK[dF]W)), in the assay with Fusarium oxysporum, the “IC50 Fusarium oxysporum” value worked out at 3.0 mg/L (≈ 1.92 µM). The “IC50 Aspergillus fumigatus” value in the assay with Aspergillus fumigatus amounted to 2.9 mg/L (≈ 1.85 µM).

Regarding `N=C(N)NCCC[C@H](N)C(=O)N[C@@H](CCCCN)C(=O)N[C@@H](CCCCN)C(=O)N[C@H](Cc1ccccc1)C(=O)N[C@@H](Cc1c[nH]c2ccccc12)C(=O)N[C@@H](Cc1ccccc1)C(=O)N[C@@H](Cc1c[nH]c2ccccc12)C(=O)NCC(=O)O` [MFIGAF002, NH2-Arg-Lys-Lys-phe-Trp-Phe-Trp-Gly-COOH] (HELM PEPTIDE1{R.K.K.[dF].W.F.W.G}$$$$V2.0), the “IC50 Fusarium oxysporum” value in the assay with Fusarium oxysporum was 3.5 mg/L (≈ 3.03 µM). Further, the “IC50 Aspergillus fumigatus” value in the assay on Aspergillus fumigatus is 2.8 mg/L (≈ 2.43 µM).

Consider `N=C(N)NCCC[C@H](N)C(=O)N[C@@H](CCCCN)C(=O)N[C@@H](CCCCN)C(=O)N1CCC[C@H]1C(=O)N[C@@H](Cc1c[nH]c2ccccc12)C(=O)N[C@@H](Cc1ccccc1)C(=O)N[C@@H](Cc1c[nH]c2ccccc12)C(=O)NCC(=O)O` [MFIGAF003, NH2-Arg-Lys-Lys-pro-Trp-Phe-Trp-Gly-COOH], for which, in the assay with Fusarium oxysporum, the “IC50 Fusarium oxysporum” value amounted to 4.1 mg/L (≈ 3.71 µM). Moreover, the “IC50 Aspergillus fumigatus” value in the assay on Aspergillus fumigatus is 5.2 mg/L (≈ 4.71 µM).

Regarding `N=C(N)NCCC[C@H](N)C(=O)N[C@@H](CCCCN)C(=O)N[C@@H](CCCCN)C(=O)N1CCC[C@@H]1C(=O)N[C@@H](Cc1c[nH]c2ccccc12)C(=O)N[C@@H](Cc1ccccc1)C(=O)N[C@@H](Cc1c[nH]c2ccccc12)C(=O)NCC(=O)O` [MFIGAF004], in the assay with Fusarium oxysporum, the “IC50 Fusarium oxysporum” value worked out at 4.1 mg/L (≈ 3.71 µM). Moreover, in the assay with Aspergillus fumigatus, the “IC50 Aspergillus fumigatus” value stood at 5.2 mg/L (≈ 4.71 µM).

Regarding `C[C@H]1NC(=O)[C@H](CCCCN)NC(=O)[C@H](CCCCN)NC(=O)[C@H](CCCNC(=N)N)NC(=O)CNC(=O)[C@H](Cc2c[nH]c3ccccc23)NC(=O)[C@H](Cc2ccccc2)NC(=O)[C@H](Cc2c[nH]c3ccccc23)NC1=O` [MFIGAF005, Cyclo(Arg-Lys-Lys-ala-Trp-Phe-Trp-Gly)] (HELM PEPTIDE1{F.W.G.R.K.K.[dA].W}$PEPTIDE1,PEPTIDE1,1:R1-8:R2$$$V2.0), the “IC50 Fusarium oxysporum” value with Fusarium oxysporum stood at 3.1 mg/L (≈ 2.92 µM). The “IC50 Aspergillus fumigatus” value with Aspergillus fumigatus came to 6.3 mg/L (≈ 5.94 µM).

With `N=C(N)NCCC[C@@H]1NC(=O)CNC(=O)[C@H](Cc2c[nH]c3ccccc23)NC(=O)[C@H](Cc2ccccc2)NC(=O)[C@H](Cc2c[nH]c3ccccc23)NC(=O)[C@@H]2CCCN2C(=O)[C@H](CCCCN)NC(=O)[C@H](CCCCN)NC1=O` [MFIGAF007, Cyclo(Arg-Lys-Lys-pro-Trp-Phe-Trp-Gly)], the “IC50 Fusarium oxysporum” value in the assay on Fusarium oxysporum worked out at 3.4 mg/L (≈ 3.13 µM). Further, the “IC50 Aspergillus fumigatus” value in the assay with Aspergillus fumigatus is on record as 5.2 mg/L (≈ 4.79 µM).

(Values after US20240299591A1, “Antimicrobial Peptides and Their Use” (priority 2021, published 2024).)
